Patent publication US9289496B2, “Lipid dipeptide and gel” (Nissan Chemical Industries, Ltd., priority 2008, dated 2016)
Residues, ends and D or L forms follow the SMILES beside them.

Legend:
[1] = Evaluation of gelation of free N-palmitoyl-Gly-His in propylene glycol (PG) solution; assay type: physicochemical; set-up: key: a sample that formed a gel is shown as “O”; a sample that partially formed a gel is shown as “A”; a sample that formed no gel is shown as “X”
Protocol: Free N-palmitoyl-Gly-His prepared in Example 4 was placed into a screw tube (Maruemu No. 1, manufactured by Maruemu Corp.). Each of the propylene solutions having various concentrations shown in Table 6 was added into the screw tube so as to have a free N-palmitoyl-Gly-His concentration of 0.25%, 0.5%, or 1% (w/v). The mixture was heated at 100° C. with a constant temperature heat block (manufactured by Nippon Genetics Co., Ltd.), and then allowed to stand at room temperature.
In Table, a sample that formed a gel is shown as “O”, a sample that partially formed a gel is shown as “A”, and a sample that formed no gel is shown as “X”.

[2] = Evaluation of gelation of free N-palmitoyl-Gly-His in water and at various pHs; assay type: physicochemical; set-up: key: a sample that formed a gel is shown as “O”; a sample that formed a sol is shown as “X”; a sample without evaluation is shown as “-”
Protocol: Free N-palmitoyl-Gly-His prepared in Example 4 was placed into a screw tube (Maruemu No. 1, manufactured by Maruemu Corp.). Each of the various solutions shown in Table 4 was added into the screw tube so as to have a free N-palmitoyl-Gly-His (also called Pal-GH (free)) concentration of 0.1%, 0.2%, 0.5%, 1%, or 2% (w/v). The mixture was heated at 100° C. with a constant temperature heat block (manufactured by Nippon Genetics Co., Ltd.), and then allowed to stand at room temperature.
In Table, a sample that formed a gel is shown as “O”, a sample that formed a sol is shown as “X”, and a sample without evaluation is shown as “-”.

## CCCCCCCCCCCCCCCC(=O)NCC(=O)N[C@@H](Cc1c[nH]cn1)C(=O)O [Example 4, N-Palmitoyl-Gly-His] (HELM PEPTIDE1{[CCCCCCCCCCCCCCCC(=O)[*:2]].G.H}$$$$V2.0)
[1]; 0.25% (w/v), mass fraction PG/water + PG 0.1
  Gelation: Δ
[1]; 0.25% (w/v), mass fraction PG/water + PG 0.2
  Gelation: Δ
[1]; 0.25% (w/v), mass fraction PG/water + PG 0.3
  Gelation: Δ
[1]; 0.25% (w/v), mass fraction PG/water + PG 0.5
  Gelation: ◯
[1]; 0.25% (w/v), mass fraction PG/water + PG 0.7
  Gelation: ◯
[1]; 0.25% (w/v), mass fraction PG/water + PG 1.0
  Gelation: X
[1]; 0.5% (w/v), mass fraction PG/water + PG 0.1
  Gelation: Δ
[1]; 0.5% (w/v), mass fraction PG/water + PG 0.2
  Gelation: Δ
[1]; 0.5% (w/v), mass fraction PG/water + PG 0.3
  Gelation: ◯
[1]; 0.5% (w/v), mass fraction PG/water + PG 0.5
  Gelation: ◯
[1]; 0.5% (w/v), mass fraction PG/water + PG 0.7
  Gelation: ◯
[1]; 0.5% (w/v), mass fraction PG/water + PG 1.0
  Gelation: X
[1]; 1.0% (w/v), mass fraction PG/water + PG 0.1
  Gelation: ◯
[1]; 1.0% (w/v), mass fraction PG/water + PG 0.2
  Gelation: ◯
[1]; 1.0% (w/v), mass fraction PG/water + PG 0.3
  Gelation: ◯
[1]; 1.0% (w/v), mass fraction PG/water + PG 0.5
  Gelation: ◯
[1]; 1.0% (w/v), mass fraction PG/water + PG 0.7
  Gelation: ◯
[1]; 1.0% (w/v), mass fraction PG/water + PG 1.0
  Gelation: X
[2]; 0.1% (w/v), phosphate buffer solution pH 3
  Gelation: ◯
[2]; 0.1% (w/v), phosphoric acid aqueous solution pH 2
  Gelation: ◯
[2]; 0.1% (w/v), water
  Gelation: X
[2]; 0.2% (w/v), phosphate buffer solution pH 3
  Gelation: ◯
[2]; 0.2% (w/v), phosphate buffer solution pH 5
  Gelation: ◯
[2]; 0.2% (w/v), phosphate buffer solution pH 6
  Gelation: ◯
[2]; 0.2% (w/v), phosphoric acid aqueous solution pH 2
  Gelation: ◯
[2]; 0.2% (w/v), water
  Gelation: X
[2]; 0.5% (w/v), phosphate buffer solution pH 3
  Gelation: ◯
[2]; 0.5% (w/v), phosphate buffer solution pH 5
  Gelation: ◯
[2]; 0.5% (w/v), phosphate buffer solution pH 6
  Gelation: ◯
[2]; 0.5% (w/v), phosphate buffer solution pH 7.5
  Gelation: ◯
[2]; 0.5% (w/v), phosphate buffer solution pH 9
  Gelation: X
[2]; 0.5% (w/v), phosphate buffer solution pH 10
  Gelation: X
[2]; 0.5% (w/v), phosphoric acid aqueous solution pH 2
  Gelation: ◯
[2]; 0.5% (w/v), water
  Gelation: X
[2]; 1.0% (w/v), phosphate buffer solution pH 5
  Gelation: ◯
[2]; 1.0% (w/v), phosphate buffer solution pH 6
  Gelation: ◯
[2]; 1.0% (w/v), phosphate buffer solution pH 7.5
  Gelation: ◯
[2]; 1.0% (w/v), phosphate buffer solution pH 9
  Gelation: ◯
[2]; 1.0% (w/v), phosphate buffer solution pH 10
  Gelation: ◯
[2]; 1.0% (w/v), water
  Gelation: ◯
[2]; 2.0% (w/v), phosphate buffer solution pH 9
  Gelation: ◯
[2]; 2.0% (w/v), phosphate buffer solution pH 10
  Gelation: ◯
[2]; 2.0% (w/v), water
  Gelation: ◯
